From the supplement of paper PMC10307832

What was measured:
Experiment in all cases: relative viability (nuclei count vs DMSO), 5 days (fraction); higher = more cells survive
LCLC-103H = test system: LCLC-103H
Method in brief: (§1)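 Cells from lung cancer lines were seeded into 1536-well plates and, one day later, dosed by pin tool. Treatments were either a single drug or a fixed dose of an anchor drug with five library-drug doses (not always all listed) in √10 steps. After 5 days, nuclei were stained in a one-step fixation (final 0.05% Triton X-100, 1% formaldehyde, 1 ug/ml Hoechst) and counted on 4× images, and relative viability is the treated-to-vehicle nuclei ratio, as the median of duplicate plates.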

NCI-H661 = test system: NCI-H661
Method in brief: as §1

NCI-H1915 = test system: NCI-H1915
Method in brief: as §1

NCI-H322M = test system: NCI-H322M
Method in brief: as §1

NCI-H460 = test system: NCI-H460
Method in brief: as §1

NCI-H1755 = test system: NCI-H1755
Method in brief: as §1

PC-14 = test system: PC-14
Method in brief: as §1

NCI-H441 = test system: NCI-H441
Method in brief: as §1

NCI-H1651 = test system: NCI-H1651
Method in brief: as §1

NCI-H1355 = test system: NCI-H1355
Method in brief: as §1

NCI-H522 = test system: NCI-H522
Method in brief: as §1

SW 900 = test system: SW 900
Method in brief: as §1

RERF-LC-KJ = test system: RERF-LC-KJ
Method in brief: as §1

NCI-H520 = test system: NCI-H520
Method in brief: as §1

NCI-H3122 = test system: NCI-H3122
Method in brief: as §1

NCI-H2347 = test system: NCI-H2347
Method in brief: as §1

LXF-289 = test system: LXF-289
Method in brief: as §1

NCI-H1792 = test system: NCI-H1792
Method in brief: as §1

NCI-H1563 = test system: NCI-H1563
Method in brief: as §1

NCI-H596 = test system: NCI-H596
Method in brief: as §1

SK-MES-1 = test system: SK-MES-1
Method in brief: as §1

O=c1cc(N2CCOCC2)oc2c(-c3cccc4c3sc3ccccc34)cccc12 + Nc1nc2[nH]cc(CCc3ccc(C(=O)N[C@@H](CCC(=O)O)C(=O)O)cc3)c2c(=O)[nH]1 [Pemetrexed] (partner 0.2 µM)
relative viability (LCLC-103H; first compound 0.01 µM): 0.44 | relative viability (LCLC-103H; first compound 0.03162 µM): 0.503 | relative viability (LCLC-103H; first compound 0.1 µM): 0.485 | relative viability (LCLC-103H; first compound 0.3162 µM): 0.465 | relative viability (LCLC-103H; first compound 1 µM): 0.457 | relative viability (NCI-H661; first compound 0.01 µM): 0.867 | relative viability (NCI-H661; first compound 0.03162 µM): 0.898 | relative viability (NCI-H661; first compound 0.1 µM): 0.95 | relative viability (NCI-H661; first compound 0.3162 µM): 0.925 | relative viability (NCI-H661; first compound 1 µM): 0.892 | relative viability (NCI-H1915; first compound 0.01 µM): 0.495 | relative viability (NCI-H1915; first compound 0.03162 µM): 0.534 | relative viability (NCI-H1915; first compound 0.1 µM): 0.486 | relative viability (NCI-H1915; first compound 0.3162 µM): 0.441 | relative viability (NCI-H1915; first compound 1 µM): 0.486 | relative viability (NCI-H322M; first compound 0.01 µM): 0.611 | relative viability (NCI-H322M; first compound 0.03162 µM): 0.613 | relative viability (NCI-H322M; first compound 0.3162 µM): 0.617 | relative viability (NCI-H322M; first compound 1 µM): 0.61 | relative viability (NCI-H460; first compound 0.01 µM): 0.0597 | relative viability (NCI-H460; first compound 0.03162 µM): 0.0598 | relative viability (NCI-H460; first compound 0.1 µM): 0.0653 | relative viability (NCI-H460; first compound 0.3162 µM): 0.0653 | relative viability (NCI-H460; first compound 1 µM): 0.0594 | relative viability (NCI-H1755; first compound 0.01 µM): 0.476 | relative viability (NCI-H1755; first compound 0.03162 µM): 0.441 | relative viability (NCI-H1755; first compound 0.1 µM): 0.425 | relative viability (NCI-H1755; first compound 0.3162 µM): 0.414 | relative viability (NCI-H1755; first compound 1 µM): 0.445 | relative viability (PC-14; first compound 0.01 µM): 0.133 | relative viability (PC-14; first compound 0.03162 µM): 0.153 | relative viability (PC-14; first compound 0.1 µM): 0.131 | relative viability (PC-14; first compound 0.3162 µM): 0.114 | relative viability (PC-14; first compound 1 µM): 0.132 | relative viability (NCI-H441; first compound 0.01 µM): 0.256 | relative viability (NCI-H441; first compound 0.03162 µM): 0.272 | relative viability (NCI-H441; first compound 0.1 µM): 0.299 | relative viability (NCI-H441; first compound 0.3162 µM): 0.276 | relative viability (NCI-H441; first compound 1 µM): 0.235 | relative viability (NCI-H1651; first compound 0.01 µM): 0.547 | relative viability (NCI-H1651; first compound 0.03162 µM): 0.564 | relative viability (NCI-H1651; first compound 0.1 µM): 0.569 | relative viability (NCI-H1651; first compound 0.3162 µM): 0.552 | relative viability (NCI-H1651; first compound 1 µM): 0.578 | relative viability (NCI-H1355; first compound 0.01 µM): 1.12 | relative viability (NCI-H1355; first compound 0.03162 µM): 0.915 | relative viability (NCI-H1355; first compound 0.1 µM): 1.05 | relative viability (NCI-H1355; first compound 0.3162 µM): 1.1 | relative viability (NCI-H1355; first compound 1 µM): 0.981 | relative viability (NCI-H522; first compound 0.01 µM): 1.11 | relative viability (NCI-H522; first compound 0.03162 µM): 1.02 | relative viability (NCI-H522; first compound 0.1 µM): 1.08 | relative viability (NCI-H522; first compound 0.3162 µM): 1.13 | relative viability (NCI-H522; first compound 1 µM): 0.831 | relative viability (SW 900; first compound 0.03162 µM): 0.452 | relative viability (SW 900; first compound 0.1 µM): 0.425 | relative viability (SW 900; first compound 0.3162 µM): 0.51 | relative viability (SW 900; first compound 1 µM): 0.507 | relative viability (RERF-LC-KJ; first compound 0.01 µM): 0.474 | relative viability (RERF-LC-KJ; first compound 0.03162 µM): 0.478 | relative viability (RERF-LC-KJ; first compound 0.1 µM): 0.492 | relative viability (RERF-LC-KJ; first compound 0.3162 µM): 0.489 | relative viability (RERF-LC-KJ; first compound 1 µM): 0.423 | relative viability (NCI-H520; first compound 0.01 µM): 0.646 | relative viability (NCI-H520; first compound 0.03162 µM): 0.657 | relative viability (NCI-H520; first compound 0.1 µM): 0.772 | relative viability (NCI-H520; first compound 0.3162 µM): 0.623 | relative viability (NCI-H520; first compound 1 µM): 0.659 | relative viability (NCI-H3122; first compound 0.01 µM): 0.207 | relative viability (NCI-H3122; first compound 0.03162 µM): 0.206 | relative viability (NCI-H3122; first compound 0.1 µM): 0.197 | relative viability (NCI-H3122; first compound 0.3162 µM): 0.21 | relative viability (NCI-H3122; first compound 1 µM): 0.205 | relative viability (NCI-H2347; first compound 0.01 µM): 0.458 | relative viability (NCI-H2347; first compound 0.03162 µM): 0.472 | relative viability (NCI-H2347; first compound 0.1 µM): 0.415 | relative viability (NCI-H2347; first compound 0.3162 µM): 0.433 | relative viability (NCI-H2347; first compound 1 µM): 0.44 | relative viability (LXF-289; first compound 0.01 µM): 0.879 | relative viability (LXF-289; first compound 0.03162 µM): 0.925 | relative viability (LXF-289; first compound 0.1 µM): 0.913 | relative viability (LXF-289; first compound 0.3162 µM): 0.864 | relative viability (LXF-289; first compound 1 µM): 0.963 | relative viability (NCI-H1792; first compound 0.01 µM): 0.835 | relative viability (NCI-H1792; first compound 0.03162 µM): 0.901 | relative viability (NCI-H1792; first compound 0.3162 µM): 0.836 | relative viability (NCI-H1792; first compound 1 µM): 0.759 | relative viability (NCI-H1563; first compound 0.01 µM): 0.863 | relative viability (NCI-H1563; first compound 0.03162 µM): 0.778 | relative viability (NCI-H1563; first compound 0.1 µM): 0.761 | relative viability (NCI-H1563; first compound 0.3162 µM): 0.767 | relative viability (NCI-H1563; first compound 1 µM): 0.641 | relative viability (NCI-H596; first compound 0.01 µM): 0.452 | relative viability (NCI-H596; first compound 0.03162 µM): 0.521 | relative viability (NCI-H596; first compound 0.1 µM): 0.528 | relative viability (NCI-H596; first compound 0.3162 µM): 0.517 | relative viability (NCI-H596; first compound 1 µM): 0.482 | relative viability (SK-MES-1; first compound 0.01 µM): 0.868 | relative viability (SK-MES-1; first compound 0.03162 µM): 0.943 | relative viability (SK-MES-1; first compound 0.1 µM): 0.906 | relative viability (SK-MES-1; first compound 0.3162 µM): 0.821 | relative viability (SK-MES-1; first compound 1 µM): 0.91
